Source: patent publication US20080261310A1, “IN VITRO ROOTING OF HOODIA PLANTS” (CONOPCO, INC., D/B/A/ UNILEVER, priority 2007, published 2008)

System: Hoodia explants
Assay: In vitro rooting of Hoodia explants on rooting media (basal salts, phytohormones, charcoal)
Format: cell-based
Settings: experiment 11 medium with just IBA or just NAA alone
Description: The explants are placed onto rooting medium 1-2 cm deep in the medium in an erect position. The distance between the explants is the same as for the multiplication phase, although they may be placed closer (i.e. about 0.5-1 cm apart), as they are no longer producing new shoots. The rooted plans are kept in the rooting medium under conditions of darkness at temperature of 26±2° C., typically for about 2-3 weeks, and later are placed under light until roots develop before going into the greenhouse for hardening. In all the multiplication and later rooting trials, the experiments were carried out in a randomised factorial design with at least four replicates per treatment. The student's t-test was used to determine significant difference between the phytohormone treatments. P values ≦0.05 was considered significant. This example investigated various concentrations basal salt medium, vitamins (those in M&S medium, always included at full strength), and various phytohormones on rooting. Each experiment was replicated four times and statistical analysis has been carried out as described above.

Compound | root formation when experiment 11 was repeated with a single auxin
O=C(O)Cc1cccc2ccccc12 [NAA, α-naphthalene acetic acid] | no roots could be obtained
O=C(O)CCCc1c[nH]c2ccccc12 [IBA, indole-3-butyric acid] | no roots could be obtained
